Test results taken from ChEMBL document CHEMBL1155960, “Design, synthesis and preliminary biological evaluation of acridine compounds as potential agents for a combined targeted chemo-radionuclide therapy approach to melanoma” (Bioorg Med Chem, 2008).

Columns and labels:
Spleen [1] = settings: mouse, in vivo, iv, 3 h
Description: Biodistribution in spleen of C57BL/6 mouse bearing mouse B16-F0 cells at 0.74 to 0.92 MBq, iv after 3 hrs

[2] = mouse, in vivo, iv, 1 h
Description: Biodistribution in intestinal content of C57BL/6 mouse bearing mouse B16-F0 cells at 0.74 to 0.92 MBq, iv after 1 hr

Kidney [3] = settings: mouse, in vivo, iv, 1 h
Description: Biodistribution in kidney of C57BL/6 mouse bearing mouse B16-F0 cells at 0.74 to 0.92 MBq, iv after 1 hr

[4] = mouse, in vivo, iv, 3 h
Description: Biodistribution in intestinal content of C57BL/6 mouse bearing mouse B16-F0 cells at 0.74 to 0.92 MBq, iv after 3 hrs

Lung [5] = settings: mouse, in vivo, iv, 3 h
Description: Biodistribution in lung of C57BL/6 mouse bearing mouse B16-F0 cells at 0.74 to 0.92 MBq, iv after 3 hrs

[6] = mouse, in vivo, iv, 3 h; remark: listed apart in the source
Description: Biodistribution in stomach content of C57BL/6 mouse bearing mouse B16-F0 cells at 0.74 to 0.92 MBq, iv after 3 hrs

[7] = mouse, in vivo, iv, 72 h
Description: Drug excretion in mouse B16-F0 cells bearing C57BL/6 mouse urine at 0.74 to 0.92 MBq, iv after 72 hrs

Liver [8] = settings: mouse, in vivo, iv, 24 h
Description: Biodistribution in liver of C57BL/6 mouse bearing mouse B16-F0 cells at 0.74 to 0.92 MBq, iv after 24 hrs

[9] = mouse, in vivo, iv, 6 h
Description: Biodistribution in intestinal content of C57BL/6 mouse bearing mouse B16-F0 cells at 0.74 to 0.92 MBq, iv after 6 hrs

[10] = mouse, in vivo, iv, 24 h
Description: Biodistribution in uvea of C57BL/6 mouse bearing mouse B16-F0 cells at 0.74 to 0.92 MBq, iv after 24 hrs

Liver [11] = settings: mouse, in vivo, iv, 1 h
Description: Biodistribution in liver of C57BL/6 mouse bearing mouse B16-F0 cells at 0.74 to 0.92 MBq, iv after 1 hr

Kidney [12] = settings: mouse, in vivo, iv, 3 h
Description: Biodistribution in kidney of C57BL/6 mouse bearing mouse B16-F0 cells at 0.74 to 0.92 MBq, iv after 3 hrs

Muscle tissue [13] = settings: mouse, in vivo, iv, 6 h
Description: Biodistribution in muscle of C57BL/6 mouse bearing mouse B16-F0 cells at 0.74 to 0.92 MBq, iv after 6 hrs

Lung [14] = settings: mouse, in vivo, iv, 1 h
Description: Biodistribution in lung of C57BL/6 mouse bearing mouse B16-F0 cells at 0.74 to 0.92 MBq, iv after 1 hr

Kidney [15] = settings: mouse, in vivo, iv, 6 h
Description: Biodistribution in kidney of C57BL/6 mouse bearing mouse B16-F0 cells at 0.74 to 0.92 MBq, iv after 6 hrs

Brain [16] = settings: mouse, in vivo, iv, 3 h
Description: Biodistribution in brain of C57BL/6 mouse bearing mouse B16-F0 cells at 0.74 to 0.92 MBq, iv after 3 hrs

[17] = mouse, in vivo, iv, 6 h; remark: listed apart in the source
Description: Biodistribution in stomach content of C57BL/6 mouse bearing mouse B16-F0 cells at 0.74 to 0.92 MBq, iv after 6 hrs

Liver [18] = settings: mouse, in vivo, iv, 6 h
Description: Biodistribution in liver of C57BL/6 mouse bearing mouse B16-F0 cells at 0.74 to 0.92 MBq, iv after 6 hrs

[19] = mouse, in vivo, iv, 3 h; remark: listed apart in the source
Description: Biodistribution in uvea of C57BL/6 mouse bearing mouse B16-F0 cells at 0.74 to 0.92 MBq, iv after 3 hrs

Muscle tissue [20] = settings: mouse, in vivo, iv, 1 h
Description: Biodistribution in muscle of C57BL/6 mouse bearing mouse B16-F0 cells at 0.74 to 0.92 MBq, iv after 1 hr

Blood [21] = settings: mouse, in vivo, iv, 1 h
Description: Biodistribution in blood of C57BL/6 mouse bearing mouse B16-F0 cells at 0.74 to 0.92 MBq, iv after 1 hr

Liver [22] = settings: mouse, in vivo, iv, 3 h
Description: Biodistribution in liver of C57BL/6 mouse bearing mouse B16-F0 cells at 0.74 to 0.92 MBq, iv after 3 hrs

[23] = mouse, in vivo, iv, 1 h; remark: listed apart in the source
Description: Biodistribution in stomach content of C57BL/6 mouse bearing mouse B16-F0 cells at 0.74 to 0.92 MBq, iv after 1 hr

Brain [24] = settings: mouse, in vivo, iv, 1 h
Description: Biodistribution in brain of C57BL/6 mouse bearing mouse B16-F0 cells at 0.74 to 0.92 MBq, iv after 1 hr

[25] = mouse, in vivo, iv, 72 h; remark: listed apart in the source
Description: Biodistribution in melanoma of C57BL/6 mouse bearing mouse B16-F0 cells at 0.74 to 0.92 MBq, iv after 72 hrs

[26] = mouse, in vivo, iv, 72 h; remark: listed apart in the source
Description: Drug excretion in mouse B16-F0 cells bearing C57BL/6 mouse feces at 0.74 to 0.92 MBq, iv after 72 hrs

Muscle tissue [27] = settings: mouse, in vivo, iv, 3 h
Description: Biodistribution in muscle of C57BL/6 mouse bearing mouse B16-F0 cells at 0.74 to 0.92 MBq, iv after 3 hrs

Blood [28] = settings: mouse, in vivo, iv, 3 h
Description: Biodistribution in blood of C57BL/6 mouse bearing mouse B16-F0 cells at 0.74 to 0.92 MBq, iv after 3 hrs

Spleen [29] = settings: mouse, in vivo, iv, 1 h
Description: Biodistribution in spleen of C57BL/6 mouse bearing mouse B16-F0 cells at 0.74 to 0.92 MBq, iv after 1 hr

Lung [30] = settings: mouse, in vivo, iv, 6 h
Description: Biodistribution in lung of C57BL/6 mouse bearing mouse B16-F0 cells at 0.74 to 0.92 MBq, iv after 6 hrs

physchem = settings: phosphate buffer solution, pH 7.4
Description: Partition coefficient, log P in phosphate buffer solution at pH 7.4

[31] = mouse, in vivo, iv, 6 h; remark: listed apart in the source
Description: Biodistribution in uvea of C57BL/6 mouse bearing mouse B16-F0 cells at 0.74 to 0.92 MBq, iv after 6 hrs

[32] = mouse, in vivo, iv, 1 h; remark: listed apart in the source
Description: Biodistribution in uvea of C57BL/6 mouse bearing mouse B16-F0 cells at 0.74 to 0.92 MBq, iv after 1 hr

[33] = mouse, in vivo, iv, 72 h; remark: listed apart in the source
Description: Biodistribution in uvea of C57BL/6 mouse bearing mouse B16-F0 cells at 0.74 to 0.92 MBq, iv after 72 hrs

| Structure (SMILES) | Drug uptake (Spleen [1]) | Drug uptake [2] | Drug uptake (Kidney [3]) | Drug uptake [4] | Drug uptake (Lung [5]) | Drug uptake [7] | Drug uptake (Liver [8]) | Drug uptake [9] | Drug uptake [10] | Drug uptake (Kidney [12]) | Drug uptake (Muscle tissue [13]) | Drug uptake (Lung [14]) | Drug uptake (Kidney [15]) | Drug uptake (Brain [16]) | Drug uptake [19] | Drug uptake (Muscle tissue [20]) | Drug uptake (Blood [21]) | Drug uptake (Liver [22]) | Drug uptake (Brain [24]) | Drug uptake [25] | further results |
| --- | --- | --- | --- | --- | --- | --- | --- | --- | --- | --- | --- | --- | --- | --- | --- | --- | --- | --- | --- | --- | --- |
| CCN(CC)CCNC(=O)c1ccc(I)cc1.Cl | 0.8 % ID/g | 7.4 % ID/g | 7.3 % ID/g | 3.7 % ID/g | 2 % ID/g | 83.1 %ID | 0.4 % ID/g | 3.3 % ID/g | 6.1 % ID/g | 3.1 % ID/g | 0.1 % ID/g | 5.5 % ID/g | 1.6 % ID/g | 0.8 % ID/g | 12 % ID/g | 1.3 % ID/g | 1.1 % ID/g | 3.3 % ID/g | 1.5 % ID/g | 0.88 % ID/g | Drug uptake [6]: 4.3 % ID/g; Drug uptake (Liver [11]): 5.9 % ID/g; Drug uptake [17]: 4.5 % ID/g; Drug uptake (Liver [18]): 2.6 % ID/g; Drug uptake [23]: 10.1 % ID/g; Drug uptake [26]: 4.8 %ID; Drug uptake (Muscle tissue [27]): 0.4 % ID/g; Drug uptake (Blood [28]): 0.2 % ID/g; Drug uptake (Spleen [29]): 4 % ID/g; Drug uptake (Lung [30]): 1 % ID/g; logD (physchem): 1.34; Drug uptake [31]: 13 % ID/g; Drug uptake [32]: 13.1 % ID/g; Drug uptake [33]: 3.8 % ID/g |
| CCN(CC)CCNC(=O)c1cccc2c(=O)c3cc(I)ccc3[nH]c12.Cl | 9.9 % ID/g | 22.7 % ID/g | 17.6 % ID/g | 27.81 % ID/g | 14 % ID/g |  | 1.2 % ID/g | 32.9 % ID/g | 27.5 % ID/g | 13 % ID/g | 0.9 % ID/g | 23.9 % ID/g | 8.9 % ID/g | 1.2 % ID/g | 16.9 % ID/g | 1.9 % ID/g | 2.08 % ID/g | 9.3 % ID/g | 1.6 % ID/g | 17.5 % ID/g | Drug uptake (Muscle tissue [27]): 1.4 % ID/g; Drug uptake (Blood [28]): 1.4 % ID/g; Drug uptake (Spleen [29]): 13.9 % ID/g; Drug uptake (Lung [30]): 10 % ID/g; logD (physchem): 0.27; Drug uptake [31]: 19.5 % ID/g; Drug uptake [32]: 15.2 % ID/g; Drug uptake [33]: 26.4 % ID/g |
| CCN(CC)CCNC(=O)c1cccc2c(=O)c3cc([125I])ccc3[nH]c12.Cl |  |  |  |  |  | 10.4 %ID |  |  |  |  |  |  |  |  |  |  |  |  |  |  | Drug uptake [26]: 38.4 %ID |
